This note sets out measurements from paper PMC11187126, “Structure and dynamics of the pyroglutamylated RF-amide peptide QRFP receptor GPR103” (Nature Communications, 2024).

A word on the EC50: it is the midpoint of the concentration-response curve.

Read-outs that look alike come from different tables or passages of the source. No end group written: not given here.

The assay concerns the target T1, GPR103 T102^2.61A (Homo sapiens, UniProt Q96P65, T102A).
T1 construct: we used human full-length QRFPR-encoding plasmids; expressed in transfected cells; host or cells: HEK293 cells, pCAGGS vector
T1 sequence (Q96P65 1-431 T102A): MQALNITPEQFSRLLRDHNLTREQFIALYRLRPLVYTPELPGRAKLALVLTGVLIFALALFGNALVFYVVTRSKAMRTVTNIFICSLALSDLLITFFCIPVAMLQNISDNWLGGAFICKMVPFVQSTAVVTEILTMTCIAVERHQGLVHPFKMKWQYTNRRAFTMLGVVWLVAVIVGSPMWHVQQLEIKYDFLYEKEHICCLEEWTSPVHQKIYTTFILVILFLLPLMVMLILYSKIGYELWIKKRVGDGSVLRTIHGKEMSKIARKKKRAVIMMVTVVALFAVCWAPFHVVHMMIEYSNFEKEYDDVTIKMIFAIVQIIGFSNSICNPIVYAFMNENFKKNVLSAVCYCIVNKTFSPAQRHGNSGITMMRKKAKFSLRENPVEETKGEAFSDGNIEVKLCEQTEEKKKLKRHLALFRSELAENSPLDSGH
Briefly: TGFα shedding assay; Exp. level WT (1:1). The format is cell-based. As to the method:
For the TGFα shedding assay and the flow cytometry analysis, we used human full-length QRFPR-encoding plasmids. Specifically, GPR103 was N-terminally modified with an HA signal sequence followed by a FLAG epitope and then a flexible linker ([…]; the FLAG epitope is underlined) and inserted into the pCAGGS vector. Plasmid encoding GPR103 mutants were generated using Quickchange Site-Directed Mutagensis kit (Agilent).
The TGFα shedding assay was performed as described previously with minor modifications. Plasmid transfection was performed in a 6-well plate with a mixture of 500 ng (per well in a 6-well plate) AP-TGFα-encoding plasmid and 200 ng GPR103-encoding plasmid. After 1-day culture, the transfected cells were harvested by trypsinization, pelleted by centrifugation at 190 × g for 5 min, and washed once with 5 mM HEPES (pH 7.4)-containing Hank’s Balanced Salt Solution (HBSS). After centrifugation, the cells were resuspended in 8 mL of the HEPES-containing HBSS. The cell suspension was seeded in a 96-well culture plate (cell plate) at a volume of 90 μL (per well hereafter) and incubated in a 37 °C incubator with 5% CO2 for 30 min. […] After spinning the cell plates at 190 × g for 2 min, 80 μL of conditioned media was transferred to an empty 96-well plate (conditioned media (CM) plate). Then, 80 μL of AP reaction solution (10 mM p-nitrophenylphosphate (p-NPP), 120 mM Tris-HCl (pH 9.5), 40 mM NaCl, and 10 mM MgCl2) was dispensed into the cell plates and the CM plates. Absorbance at 405 nm of the plates was measured using a microplate reader (SpectraMax 340 PC384, Molecular Devices) before and after 1-h incubation at room temperature. Ligand-induced AP-TGFα release was calculated by subtracting spontaneous AP-TGFα release signal from ligand-induced AP-TGFα release signal. The AP-TGFα release signals were fitted to a four-parameter sigmoidal concentration–response curve, using the Prism 10 software (GraphPad Prism). For each replicate experiment, the pEC50 parameter (negative logarithmic values of EC50 values) of the individual GPR103 mutants were normalized to that of the wild-type GPR103 performed in parallel, and resulting ∆pEC50 values were used to denote ligand response activity of the mutants. […]
Exp. le vel: WT (1:5 0)Exp. le vel: WT (1:5 0)Exp. le vel: WT (1:5 0)Exp. le vel: WT (1:2 0)Exp. le vel: WT (1:2 0)Exp. le vel: WT (1:1 0) […]
L1 4N - t e r mA F2 5N - t e r mA I 2 6N - t e r mA Y 2 9N - t e r mA C 9 82 .5 7A T10 22 .6 1A Exp . l eve l: WT (1 :5)Exp . l evel : >WT (1 :1)Exp. le vel: WT (1:2 0)Exp. le vel: WT (1:2 0)Exp. le vel: WT (1:5 0)Exp . l eve l: WT (1 :1) […]
Exp. le vel: WT (1:1 0)Exp. le vel: WT (1:2 0) C 1 1 83 .2 5AExp. le vel: WT (1:5 0)Exp. le vel: WT (1:5 0)Exp. le vel: WT (1:2 0)Exp . l eve l: WT (1 :5) […]
Exp. le vel: WT (1:5 0)Exp. le vel: WT (1:1 0)Exp. le vel: WT (1:5 0) E203ECL2AExp . l evel : >WT (1 :1)Exp. le vel: WT (1:5 0)Exp. le vel: WT (1:5 0) […]
Exp . l eve l: WT (1 :1) F28Exp. le vel: WT (1:5 0) C 2 8 56 .4 7AExp. le vel: WT (1:2 0) WExp. le vel: WT (1:2 0) F28Exp. le vel: WT (1:5 0)Exp . l evel : >WT (1 :1) […]
Exp. le vel: WT (1:5 0)Exp. le vel: WT (1:5 0) C 3 2 77 .4 8AExp . l eve l: WT (1 :5)Exp . l evel : >WT (1 :1)Exp . l evel : >WT (1 :1) […]
Suppl eme nt ary Figure 1 | Mutational analysis of GPR103. […]
mutants. Data are presented as mean values ± SEM, normally n=3-5; dots), each performed in triplicate. b-d Cell-surface expression (b) and QRFP26-in-duced activation of GPR103 (c, d) were analyzed by the flow cytometry and the TGFα shedding assay, respectively. From the concentration–response curves (a), Emax (c) and ΔpEC50 (d) values relative to the wild type were calculated. Colors in the mutant bars indicate an expression level matching to that of titrated wild type. Statistical analyses were performed using the ordinary one-way ANOVA followed by Dunnett tests with the expression-matched […]

Take TSGPLGNLAEELNGYSRKKGGFSFRF-NH2 [QRFP26]: the Emax (Exp. #1) is given as 102.50 % WT; the Emax (Exp. #2) was 94.07 % WT; the Emax (Exp. #3) is given as 109.18 % WT; the Emax (mean, read-out: Emax) was determined as 102%; the Emax (n = 3, read-out: Emax) worked out at 105 ± 3.6%. The 50% effective concentration (EC50) (n = 3) is 20.4 nM.
